System: O-GlcNAcase in rat PC-12 cells
Experiment: Cell-based ELISA of O-GlcNAcylated protein (RL-2 antibody)
Settings: 24 h treatment, O-GlcNAcylated protein level
Excerpt: Assay for Determination of Cellular Activity for Compounds that Inhibit O-GlcNAcase Activity
Inhibition of O-GlcNAcase, which removes O-GlcNAc from cellular proteins, results in an increase in the level of O-GlcNAcylated protein in cells. An increase in O-GlcNAcylated protein can be measured by an antibody, such as RL-2, that binds to O-GlcNAcylated protein. The amount of O-GlcNAcylated protein:RL2 antibody interaction can be measured by enzyme linked immunosorbant assay (ELISA) procedures.
A variety of tissue culture cell lines, expressing endogenous levels of O-GlcNAcase, can be utilized; examples include rat PC-12, and human U-87, or SK—N—SH cells. […] If desired, the total protein concentration of samples is determined using 20 μL of the sample using the BCA method.
The ELISA portion of the assay is performed in a black Maxisorp 96-well plate that is coated overnight at 4° C. with 100 μL/well of the cell lysate (1:10 dilution of the lysate with PBS containing protease inhibitors, phosphatase inhibitors, and PMSF). […] The detection reaction is incubated for 15 minutes at room temperature and then read with excitation at 530 nm and emission at 590 nm.
The amount of O-GlcNAcylated protein, as detected by the ELISA assay, is plotted for each concentration of test compound using standard curve fitting algorithms for sigmoidal dose response curves. […]

EC50: 665 nM
SMILES: CC(=O)NC[C@@H]1[C@@H](O)[C@H](O)[C@@H](CO)N1CCCc1ccc(-c2ccccc2)cc1 [Example 3, N-(((2R,3R,4R,5R)-1-(3-([1,1′-biphenyl]-4-yl)propyl)-3,4-dihydroxy-5-(hydroxymethyl)pyrrolidin-2-yl)methyl)acetamide]

From patent US9809537B2, “Glycosidase inhibitors and uses thereof” (Alectos Therapeutics Inc., priority 2012, dated 2017)
